“And” between values parts separate entries of the source, which are not always exact repeats. Equal values may be shown once.
Columns and labels:
[1] = system: Escherichia coli K-12 ATCC 25253; type: cell-based
[2] = system: Salmonella Newport; assay: Biofilm formation on food contact surface coupons, direct plating; type: cell-based, Salmonella enterica; settings: two-minute treatment
Protocol: A protocol based on direct plating was also evaluated for testing the biofilm formation by Salmonella or L. monocytogenes. Biofilms were formed on three different food contact surface coupons (HDPE, Buna-N rubber, and 316 stainless steel) for up to 3 days in 35 mm mini-petri dishes. Biofilms were formed using a 1:10 diluted TSB solution (10 mL) with either S. enterica or L. monocytogenes inoculum (100 μL). The diluted TSB was changed every 16-18 hours with new 1:10 diluted TSB (10 mL). Coupons were removed for sampling and enumeration of strongly attached bacteria at three different time points (Day 0, 1, and 3). The coupons were rinsed with deionized water five times to remove planktonic cells. Then the coupons were immersed in 10 mL of BPW. The coupons were sonicated for 2 minutes using different settings (Tables 11 and 12) for each organism. After sonication, the solution was serially diluted and plated on Tryptic Soy Agar (TSA). Plates were incubated at 37° C. for 24-48 hours. The colonies were counted and the colony forming units were determined for the various sonication settings, so that the appropriate setting with the most recovery could be determined. […] These settings were used in further experiments to recover the bacterial cells from coupons during sampling and enumeration (by spread plating) of the bacteria in biofilms.
The reduction in bacterial biofilm formation was also tested using a direct plating method. Biofilms were formed on six different food contact surface coupons (HDPE, Buna-N rubber, PC, PVC, and stainless steel 304 and 316) in separate 35 mm mini-petri dishes and evaluated at three different time points (Day 0, 1, and 3). Biofilms were formed using a 1:10 diluted TSB solution (10 mL) with either S. enterica or L. monocytogenes inoculum (100 μL). The coupons were also washed and treated with antimicrobial solutions containing the plant-based emulsifier and the essential oil/plant extracts at various concentrations. The diluted TSB was changed every 16-18 hours with new 1:10 diluted TSB (10 mL). The coupons were rinsed in the antimicrobial solution before adding them to the petri dishes containing the fresh, diluted TSB. After their specific time points, coupons were removed aseptically using sterile forceps from the petri dish. The coupons were rinsed by submerging in 25 mL of sterile deionized H2O and swirled five times to remove planktonic cells. After rinsing, they were placed into a new petri dish immersed in 10 mL of BPW. The coupons were sonicated for 2 minutes on ice using different settings for each organism. After sonication, the sonicated solution was serially diluted using 0.1% peptone water and spread plated on TSA in duplicate. Plates were incubated overnight at 37° C. for 24-48 hours, after which, the colonies were counted, to establish the efficacy of the antimicrobial solutions (Tables 17-25).

OO [3% hydrogen peroxide, hydrogen peroxide]
Bacterial reductions on spinach samples after sanitizer treatments [1]: 0.8-1.2 Log CFU/g and 1.0-1.3 Log CFU/g
log reduction of E. coli K-12 on spinach [1]: 0.8-1.2 log and 1.0-1.3 log

CC(C)=CCCC(C)=CC=O [Citral, citral]
Survivors of Salmonella Newport on food contact surface ([2]; 0.5% with 0.0001% saponin microemulsion, Day 0, 304 SS): 4.32 Log CFU/mL
Survivors of Salmonella Newport on food contact surface ([2]; 0.5% with 0.0001% saponin microemulsion, Day 0, 316 SS): 4.36 Log CFU/mL
Survivors of Salmonella Newport on food contact surface ([2]; 0.5% with 0.0001% saponin microemulsion, Day 0, Buna N): 4.06 Log CFU/mL
Survivors of Salmonella Newport on food contact surface ([2]; 0.5% with 0.0001% saponin microemulsion, Day 0, HDPE): 3.44 Log CFU/mL
Survivors of Salmonella Newport on food contact surface ([2]; 0.5% with 0.0001% saponin microemulsion, Day 0, PC): 3.25 Log CFU/mL
Survivors of Salmonella Newport on food contact surface ([2]; 0.5% with 0.0001% saponin microemulsion, Day 0, PVC): 3.49 Log CFU/mL
Survivors of Salmonella Newport on food contact surface ([2]; 0.5% with 0.0001% saponin microemulsion, Day 1, 304 SS): 4.52 Log CFU/mL
Survivors of Salmonella Newport on food contact surface ([2]; 0.5% with 0.0001% saponin microemulsion, Day 1, 316 SS): 4.52 Log CFU/mL
Survivors of Salmonella Newport on food contact surface ([2]; 0.5% with 0.0001% saponin microemulsion, Day 1, Buna N): 4.34 Log CFU/mL
Survivors of Salmonella Newport on food contact surface ([2]; 0.5% with 0.0001% saponin microemulsion, Day 1, HDPE): 4.24 Log CFU/mL
Survivors of Salmonella Newport on food contact surface ([2]; 0.5% with 0.0001% saponin microemulsion, Day 1, PC): 4.20 Log CFU/mL
Survivors of Salmonella Newport on food contact surface ([2]; 0.5% with 0.0001% saponin microemulsion, Day 1, PVC): 4.27 Log CFU/mL
Survivors of Salmonella Newport on food contact surface ([2]; 0.5% with 0.0001% saponin microemulsion, Day 3, 304 SS): 4.20 Log CFU/mL
Survivors of Salmonella Newport on food contact surface ([2]; 0.5% with 0.0001% saponin microemulsion, Day 3, 316 SS): 4.36 Log CFU/mL
Survivors of Salmonella Newport on food contact surface ([2]; 0.5% with 0.0001% saponin microemulsion, Day 3, Buna N): 4.20 Log CFU/mL
Survivors of Salmonella Newport on food contact surface ([2]; 0.5% with 0.0001% saponin microemulsion, Day 3, HDPE): 3.56 Log CFU/mL
Survivors of Salmonella Newport on food contact surface ([2]; 0.5% with 0.0001% saponin microemulsion, Day 3, PC): 3.52 Log CFU/mL
Survivors of Salmonella Newport on food contact surface ([2]; 0.5% with 0.0001% saponin microemulsion, Day 3, PVC): 4.27 Log CFU/mL
Survivors of Salmonella Newport on food contact surface ([2]; 0.7% with 0.0001% saponin microemulsion, Day 0, 304 SS): 4.23 Log CFU/mL
Survivors of Salmonella Newport on food contact surface ([2]; 0.7% with 0.0001% saponin microemulsion, Day 0, 316 SS): 3.59 Log CFU/mL
Survivors of Salmonella Newport on food contact surface ([2]; 0.7% with 0.0001% saponin microemulsion, Day 0, Buna N): 4.52 Log CFU/mL
Survivors of Salmonella Newport on food contact surface ([2]; 0.7% with 0.0001% saponin microemulsion, Day 0, HDPE): 2.71 Log CFU/mL
Survivors of Salmonella Newport on food contact surface ([2]; 0.7% with 0.0001% saponin microemulsion, Day 0, PC): 3.59 Log CFU/mL
Survivors of Salmonella Newport on food contact surface ([2]; 0.7% with 0.0001% saponin microemulsion, Day 0, PVC): 3.24 Log CFU/mL
Survivors of Salmonella Newport on food contact surface ([2]; 0.7% with 0.0001% saponin microemulsion, Day 1, 304 SS): 3.36 Log CFU/mL
Survivors of Salmonella Newport on food contact surface ([2]; 0.7% with 0.0001% saponin microemulsion, Day 1, 316 SS): 3.24 Log CFU/mL
Survivors of Salmonella Newport on food contact surface ([2]; 0.7% with 0.0001% saponin microemulsion, Day 1, Buna N): 3.52 Log CFU/mL
Survivors of Salmonella Newport on food contact surface ([2]; 0.7% with 0.0001% saponin microemulsion, Day 1, HDPE): <1 Log CFU/mL
Survivors of Salmonella Newport on food contact surface ([2]; 0.7% with 0.0001% saponin microemulsion, Day 1, PC): <1 Log CFU/mL
Survivors of Salmonella Newport on food contact surface ([2]; 0.7% with 0.0001% saponin microemulsion, Day 1, PVC): <1 Log CFU/mL
Survivors of Salmonella Newport on food contact surface ([2]; 0.7% with 0.0001% saponin microemulsion, Day 3, 304 SS): <1 Log CFU/mL
Survivors of Salmonella Newport on food contact surface ([2]; 0.7% with 0.0001% saponin microemulsion, Day 3, 316 SS): <1 Log CFU/mL
Survivors of Salmonella Newport on food contact surface ([2]; 0.7% with 0.0001% saponin microemulsion, Day 3, Buna N): <1 Log CFU/mL
Survivors of Salmonella Newport on food contact surface ([2]; 0.7% with 0.0001% saponin microemulsion, Day 3, HDPE): <1 Log CFU/mL
Survivors of Salmonella Newport on food contact surface ([2]; 0.7% with 0.0001% saponin microemulsion, Day 3, PC): <1 Log CFU/mL
Survivors of Salmonella Newport on food contact surface ([2]; 0.7% with 0.0001% saponin microemulsion, Day 3, PVC): <1 Log CFU/mL
Survivors of Salmonella Newport on food contact surface ([2]; 1% with 0.0001% saponin microemulsion, Day 0, 304 SS): 3.91 Log CFU/mL
Survivors of Salmonella Newport on food contact surface ([2]; 1% with 0.0001% saponin microemulsion, Day 0, 316 SS): 4.13 Log CFU/mL
Survivors of Salmonella Newport on food contact surface ([2]; 1% with 0.0001% saponin microemulsion, Day 0, Buna N): 3.26 Log CFU/mL
Survivors of Salmonella Newport on food contact surface ([2]; 1% with 0.0001% saponin microemulsion, Day 0, HDPE): 4.45 Log CFU/mL
Survivors of Salmonella Newport on food contact surface ([2]; 1% with 0.0001% saponin microemulsion, Day 0, PC): 4.20 Log CFU/mL
Survivors of Salmonella Newport on food contact surface ([2]; 1% with 0.0001% saponin microemulsion, Day 0, PVC): 3.89 Log CFU/mL
Survivors of Salmonella Newport on food contact surface ([2]; 1% with 0.0001% saponin microemulsion, Day 1, 304 SS): <1 Log CFU/mL
Survivors of Salmonella Newport on food contact surface ([2]; 1% with 0.0001% saponin microemulsion, Day 1, 316 SS): <1 Log CFU/mL
Survivors of Salmonella Newport on food contact surface ([2]; 1% with 0.0001% saponin microemulsion, Day 1, Buna N): <1 Log CFU/mL
Survivors of Salmonella Newport on food contact surface ([2]; 1% with 0.0001% saponin microemulsion, Day 1, HDPE): <1 Log CFU/mL
Survivors of Salmonella Newport on food contact surface ([2]; 1% with 0.0001% saponin microemulsion, Day 1, PC): <1 Log CFU/mL
Survivors of Salmonella Newport on food contact surface ([2]; 1% with 0.0001% saponin microemulsion, Day 1, PVC): <1 Log CFU/mL
Survivors of Salmonella Newport on food contact surface ([2]; 1% with 0.0001% saponin microemulsion, Day 3, 304 SS): <1 Log CFU/mL
Survivors of Salmonella Newport on food contact surface ([2]; 1% with 0.0001% saponin microemulsion, Day 3, 316 SS): <1 Log CFU/mL
Survivors of Salmonella Newport on food contact surface ([2]; 1% with 0.0001% saponin microemulsion, Day 3, Buna N): <1 Log CFU/mL
Survivors of Salmonella Newport on food contact surface ([2]; 1% with 0.0001% saponin microemulsion, Day 3, HDPE): <1 Log CFU/mL
Survivors of Salmonella Newport on food contact surface ([2]; 1% with 0.0001% saponin microemulsion, Day 3, PC): <1 Log CFU/mL
Survivors of Salmonella Newport on food contact surface ([2]; 1% with 0.0001% saponin microemulsion, Day 3, PVC): <1 Log CFU/mL

Source: patent publication US12239134B2, “Plant antimicrobial compositions including an emulsifier and/or ozone and methods of use” (Arizona Board of Regents on Behalf of The University of …, priority 2018, dated 2025)
